Literature values as cited in patent US20120058942A1, “METHODS FOR CONTROLLING BLOOD-GLUCOSE LEVELS IN INSULIN-REQUIRING SUBJECTS” (priority 2010, published 2012).
No end group written: not given here.

Key:
[1] = human volunteers, insulin-treated T1D
[2] = humans with diabetes mellitus

Row | Substance | rise in blood glucose that accompanies absorption of a standard meal ([1]; continued insulin by IIT) | absorption of the meal ([1]; standard meal) | secretion of glucagon ([1]; standard meal) | stimulation of insulin secretion [2]
1 | Glucagon-like peptide-1 (HAEGTFTSDVSSYLEGQAAKEFIAWLVKGR; ends and bridges not checked; UniProt P01275 98-127, looked up) [GLP-1, incretin; post-translational product of the glucagon gene in the intestinal L-cell] | powerfully restrict the rise in blood glucose | delay in absorption of the meal | suppression of secretion of glucagon | capable of stimulating insulin secretion
2 | gastric-inhibitory polypeptide (YAEGTFISDYSIAMDKIHQQDFVNWLLAQKGKKNDWKHNITQ; Gastric inhibitory polypeptide; UniProt P09681 52-93, looked up) [GIP, insulin-stimulating hormone of the entero-insular axis] | – | – | – | failed to stimulate insulin secretion
